Results: patent US20110124523A1, “High Throughput Method for Detecting Apoptosis of Embryonic Stages of Metazoan Helminthic Parasites” (INSTITUTE OF LIFE SCIENCES, priority 2009, published 2011)
Values joined by “and” are separate entries in the source; they are usually repeats but may differ in a detail not shown here. Equal values may be shown once.

How the values were obtained:
[1] = test system: embryonic stages of S. digitata; assay: Intra cellular cleavage of caspase substrate PARP, anti cleaved PARP-PE staining; format: cell-based, Setaria digitata; details: 24 hr
Method: Adult female filarial worms Setaria digitata were collected from the peritoneum of cattle, slaughtered at a nearby abattoir in sterile Hanks Balanced Salt Solution (HBSS) medium (Sigma H 2387-1L) and transported to the laboratory in a sterile container. The medium containing 1% glucose (Sigma G 7528), Penicillin 100 units/ml, Streptomycin 100 μg/ml (Sigma P 4333). And Amphotericin-B 0.25 μg/ml (Sigma A 2942) was buffered with NaHCO3 (Sigma S 5761). About 5 to 7 worms were taken in a petridish, washed three times in medium, dissected into small pieces in 10 ml of medium under sterile conditions and incubated at 37° C. for 30 minutes to allow the release of embryonic stages (eggs and microfilariae) into the medium. The embryonic stages were harvested into sterile 15 ml. centrifuge tubes and washed three times by centrifuging at 300 g for 10 minutes each with medium and the final pellet was suspended in 1 ml. of RPMI-1640 medium (Sigma R 8005) supplemented with 10% FBS (Sigma F 2442) The number of embryonic stages of S. digitata in the above preparation were counted using light microscope, and the suspension was taken in RPMI-1640 medium containing 10% FBS at 1×10^5 embryonic stages/ml. One ml. each was dispensed into individual wells of a 24 well tissue culture plate. One set of wells was taken as untreated control containing only medium with 10% FBS. […] Motility of the Mf was scored under an inverted microscope. After appropriate treatment and incubation, each set of the cultured embryonic stages of S. digitata were harvested from the 24 well tissue culture plate separately in 15 ml. sterile centrifuge tubes, washed with PBS twice and stained as per requirement following manufacturer's instructions as described below. This was followed by two times washing with PBS and final suspension of the stained embryonic stages was taken in 0.5 ml of sheath fluid (BD Biosciences 342003) before their acquisition in the flow cytometer (BD FACS Calibur, Becten and Dickinson, USA). Analysis was performed on 10,000-acquired events depicted as Dot Plots and Histogram Plots using Cellquest Pro soft ware. All plots were representative of at least 3 experiments. The distinctly clustered populations obtained consistently in the Dot plots for the intra uterine embryonic stages of S. digitata (FIG. 1 a) were gated for Mfs (R-1) and eggs (R-2 and R-3) and analyzed for different assays for apoptosis as described below. After in vitro culture for 24 hours with apoptosis inducing reagents the embryonic stages were harvested in 15 ml. sterile centrifuge tubes and fixed for 60 minutes at 0° C. in 1% paraformaldehyde (Sigma P 6148) in PBS. The suspension was washed first with PBS and then with 1× permeabilisation buffer (eBioscience 00-8333-56) and finally resuspended in 100 μl of 1× permeabilisation buffer at 1×10^5 embryonic stages per ml. This suspension was then incubated for 45 minutes with 20 μl of anti cleaved PARP-PE (BD Biosciences 552933). This was followed by washing with PBS twice and analysis by Flow cytometer.

[2] = test system: embryonic stages of S. digitata; assay: Fragmentation of chromosomal DNA, TUNEL staining; format: cell-based, Setaria digitata; details: for GMI (Geometric Mean Intensity) of Fluorescence, TUNEL Staining: 24 hr; for induction of DNA fragmentation (result in words): Mf stages and eggs, TUNEL assay
Method: Adult female filarial worms Setaria digitata were collected from the peritoneum of cattle, slaughtered at a nearby abattoir in sterile Hanks Balanced Salt Solution (HBSS) medium (Sigma H 2387-1L) and transported to the laboratory in a sterile container. The medium containing 1% glucose (Sigma G 7528), Penicillin 100 units/ml, Streptomycin 100 μg/ml (Sigma P 4333). And Amphotericin-B 0.25 μg/ml (Sigma A 2942) was buffered with NaHCO3 (Sigma S 5761). About 5 to 7 worms were taken in a petridish, washed three times in medium, dissected into small pieces in 10 ml of medium under sterile conditions and incubated at 37° C. for 30 minutes to allow the release of embryonic stages (eggs and microfilariae) into the medium. The embryonic stages were harvested into sterile 15 ml. centrifuge tubes and washed three times by centrifuging at 300 g for 10 minutes each with medium and the final pellet was suspended in 1 ml. of RPMI-1640 medium (Sigma R 8005) supplemented with 10% FBS (Sigma F 2442) The number of embryonic stages of S. digitata in the above preparation were counted using light microscope, and the suspension was taken in RPMI-1640 medium containing 10% FBS at 1×10^5 embryonic stages/ml. One ml. each was dispensed into individual wells of a 24 well tissue culture plate. One set of wells was taken as untreated control containing only medium with 10% FBS. […] Motility of the Mf was scored under an inverted microscope. After appropriate treatment and incubation, each set of the cultured embryonic stages of S. digitata were harvested from the 24 well tissue culture plate separately in 15 ml. sterile centrifuge tubes, washed with PBS twice and stained as per requirement following manufacturer's instructions as described below. This was followed by two times washing with PBS and final suspension of the stained embryonic stages was taken in 0.5 ml of sheath fluid (BD Biosciences 342003) before their acquisition in the flow cytometer (BD FACS Calibur, Becten and Dickinson, USA). Analysis was performed on 10,000-acquired events depicted as Dot Plots and Histogram Plots using Cellquest Pro soft ware. All plots were representative of at least 3 experiments. The distinctly clustered populations obtained consistently in the Dot plots for the intra uterine embryonic stages of S. digitata (FIG. 1 a) were gated for Mfs (R-1) and eggs (R-2 and R-3) and analyzed for different assays for apoptosis as described below. Presence of fragmentation of chromosomal DNA was detected by TUNEL staining. Briefly, the treated embryonic stages were harvested, fixed with 1% Para formaldehyde followed by washing with PBS and stored in 70% ethanol at −20° C.

| SMILES | GMI (Geometric Mean Intensity) of Fluorescence, PARP Cleavage ([1]; Eggs, 10 μM) | GMI (Geometric Mean Intensity) of Fluorescence, PARP Cleavage ([1]; Microfilariae, 10 μM) | GMI (Geometric Mean Intensity) of Fluorescence, TUNEL Staining ([2]; Eggs, 10 μM) | induction of DNA fragmentation (result in words) [2] | GMI (Geometric Mean Intensity) of Fluorescence, TUNEL Staining ([2]; Microfilariae, 10 μM) | efficiency in induction of apoptosis (comparison in words) ([2]; Plumbagin compared with H2O2) | GMI (Geometric Mean Intensity) of Fluorescence, PARP Cleavage ([1]; Eggs, 1 μM) | GMI (Geometric Mean Intensity) of Fluorescence, PARP Cleavage ([1]; Microfilariae, 1 μM) | GMI (Geometric Mean Intensity) of Fluorescence, TUNEL Staining ([2]; Eggs, 1 μM) | GMI (Geometric Mean Intensity) of Fluorescence, TUNEL Staining ([2]; Microfilariae, 1 μM) |
| --- | --- | --- | --- | --- | --- | --- | --- | --- | --- | --- |
| OO [H2O2] | 70.72 and 75.32 and 78.52 | 8.39 and 7.99 and 8.02 | 70.85 and 71.36 and 72.56 | dose dependent induction of DNA fragmentation | 13.62 and 12.52 and 14.16 |  |  |  |  |  |
| CC1=CC(=O)c2c(O)cccc2C1=O [Plumbagin] | 102.15 and 109.36 and 110.25 | 10.01 and 11.32 and 9.67 | 104.33 and 109.68 and 105.32 | dose dependent induction of DNA fragmentation | 40.65 and 38.97 and 45.76 | more efficient than H2O2 in induction of apoptosis |  |  |  |  |
| CN[C@@H]1C[C@H]2O[C@@](C)([C@@H]1OC)n1c3ccccc3c3c4c(c5c6ccccc6n2c5c31)C(=O)NC4 [Staurosporine] |  |  |  |  |  |  | 63.95 and 66.56 and 70.27 | 6.57 and 6.21 and 5.49 | 65.77 and 60.33 and 71.25 | 10.67 and 10.02 and 12.15 |
